Measured values from ChEMBL document CHEMBL1201862, “PubChem BioAssay data set” (2004).
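Tested at 5 concentrations; 48 h exposure; 96-well plates; endpoints linearly interpolated, else capped at highest concentration. GI50 marks 50% less growth.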 Active and inactive are the calls of the source. Rule as the data show it: active = GI50 up to about 1.1 µM and inactive = higher.

How the values were obtained:
Experiment in all cases: NCI-60 cell line screen, 48 h
DU-145 = system: DU-145
SK-MEL-28 = system: SK-MEL-28
786-0 = system: 786-0
HCT-116 = system: HCT-116
NCI/ADR-RES = system: NCI/ADR-RES
MDA-MB-435 = system: MDA-MB-435
OVCAR-3 = system: OVCAR-3
OVCAR-4 = system: OVCAR-4
T47D = system: T47D
SK-OV-3 = system: SK-OV-3
A549 = system: A549
SNB-19 = system: SNB-19
HOP-92 = system: HOP-92
SNB-75 = system: SNB-75
SN12C = system: SN12C
M14 = system: M14
Hs-578T = system: Hs-578T
TK-10 = system: TK-10
MDA-MB-231 = system: MDA-MB-231
SF-539 = system: SF-539

Measured: GI50

COC(=O)[C@H](Cc1c[nH]c2ccccc12)NC(=O)c1ccccc1I
inactive: DU-145 21.8 µM | SK-MEL-28 89.3 µM | 786-0 16.1 µM | HCT-116 16.3 µM | NCI/ADR-RES 32.1 µM | MDA-MB-435 25.4 µM | OVCAR-3 13.6 µM | OVCAR-4 30 µM | T47D 22.6 µM | SK-OV-3 33.6 µM | A549 > 100 µM | SNB-19 > 100 µM | HOP-92 16.9 µM | SNB-75 11.8 µM | SN12C > 100 µM | M14 15.7 µM | Hs-578T 9.84 µM | TK-10 24.4 µM | MDA-MB-231 29.1 µM

c1ccc2sc(SSSc3nc4ccccc4s3)nc2c1
inactive: DU-145 > 100 µM | SK-MEL-28 > 100 µM | 786-0 44.4 µM | HCT-116 > 100 µM | NCI/ADR-RES > 100 µM | MDA-MB-435 > 100 µM | OVCAR-4 > 100 µM | T47D 32 µM | SK-OV-3 > 100 µM | A549 > 100 µM | SNB-19 > 100 µM | HOP-92 > 100 µM | SNB-75 > 100 µM | SN12C > 100 µM | M14 > 100 µM | Hs-578T > 100 µM | TK-10 > 100 µM | MDA-MB-231 > 100 µM

CN(C)CCNC(=O)c1cc([N+](=O)[O-])ccn1
inactive: DU-145 > 100 µM | SK-MEL-28 > 100 µM | 786-0 42.5 µM | HCT-116 24.8 µM | MDA-MB-435 19 µM | OVCAR-3 22.5 µM | OVCAR-4 20.2 µM | T47D 30.3 µM | SK-OV-3 70.3 µM | A549 30.8 µM | SNB-19 33.6 µM | SNB-75 > 100 µM | SN12C 23.8 µM | M14 36.7 µM | SF-539 22.8 µM | Hs-578T 46.8 µM | TK-10 > 100 µM | MDA-MB-231 25.4 µM

Cc1ccc(S(=O)(=O)OC2C(C3COC(C)(C)O3)OC3OC(C)(C)OC32)cc1 (stereo unspecified)
inactive: DU-145 > 100 µM | SK-MEL-28 > 100 µM | 786-0 > 100 µM | HCT-116 > 100 µM | NCI/ADR-RES > 100 µM | MDA-MB-435 > 100 µM | OVCAR-3 > 100 µM | OVCAR-4 > 100 µM | T47D > 100 µM | A549 > 100 µM | SNB-19 > 100 µM | HOP-92 > 100 µM | SNB-75 > 100 µM | SN12C > 100 µM | M14 > 100 µM | Hs-578T > 100 µM | TK-10 > 100 µM | MDA-MB-231 > 100 µM

CN(CCC(=O)N1CC(CCl)c2ccc([N+](=O)[O-])cc21)CCC(=O)N1CC(CCl)c2ccc([N+](=O)[O-])cc21 (stereo unspecified)
inactive: DU-145 31.5 µM | SK-MEL-28 15.5 µM | 786-0 10.9 µM | HCT-116 12.6 µM | MDA-MB-435 13.9 µM | OVCAR-3 11.5 µM | OVCAR-4 42.7 µM | T47D 25.1 µM | SK-OV-3 29.6 µM | A549 36.6 µM | SNB-19 > 100 µM | SNB-75 2.56 µM | SN12C 19 µM | M14 10.1 µM | SF-539 14.6 µM | Hs-578T 2.85 µM | TK-10 10.4 µM | MDA-MB-231 16.7 µM

COc1ccccc1/N=N/c1c(O)c(S(=O)(=O)O)cc2cc(S(=O)(=O)O)ccc12
inactive: DU-145 > 100 µM | SK-MEL-28 > 100 µM | 786-0 > 100 µM | HCT-116 > 100 µM | NCI/ADR-RES > 100 µM | MDA-MB-435 > 100 µM | OVCAR-3 > 100 µM | OVCAR-4 > 100 µM | T47D > 100 µM | SK-OV-3 > 100 µM | A549 > 100 µM | SNB-19 > 100 µM | HOP-92 > 100 µM | SNB-75 > 100 µM | SN12C > 100 µM | M14 > 100 µM | Hs-578T > 100 µM | TK-10 > 100 µM | MDA-MB-231 > 100 µM

O=C(NC(Cc1c[nH]cn1)C(=O)N1CCCC1)C1CCCC1 (stereo unspecified)
inactive: DU-145 > 100 µM | SK-MEL-28 > 100 µM | 786-0 > 100 µM | HCT-116 > 100 µM | NCI/ADR-RES > 100 µM | MDA-MB-435 > 100 µM | OVCAR-3 > 100 µM | OVCAR-4 > 100 µM | T47D > 10 µM | SK-OV-3 > 100 µM | A549 > 100 µM | SNB-19 > 100 µM | HOP-92 > 100 µM | SNB-75 > 100 µM | SN12C > 100 µM | M14 > 100 µM | Hs-578T 83.8 µM | TK-10 > 100 µM | MDA-MB-231 > 100 µM

c1ccc(/N=C(\N2CCOCC2)N(CCN2CCOCC2)c2ccccc2)cc1
inactive: DU-145 > 100 µM | SK-MEL-28 > 100 µM | 786-0 > 100 µM | HCT-116 98.2 µM | NCI/ADR-RES > 10 µM | MDA-MB-435 > 100 µM | OVCAR-3 > 100 µM | OVCAR-4 > 100 µM | T47D > 100 µM | SK-OV-3 > 100 µM | A549 > 100 µM | SNB-19 > 100 µM | SNB-75 > 100 µM | SN12C > 100 µM | M14 > 100 µM | SF-539 > 100 µM | Hs-578T > 100 µM | TK-10 > 100 µM | MDA-MB-231 > 100 µM

O=C1OC(c2ccco2)=N/C1=C\c1cccc([N+](=O)[O-])c1
inactive: DU-145 > 100 µM | SK-MEL-28 > 100 µM | 786-0 > 100 µM | HCT-116 > 100 µM | MDA-MB-435 > 100 µM | OVCAR-3 > 100 µM | OVCAR-4 > 100 µM | T47D > 100 µM | SK-OV-3 > 100 µM | A549 > 100 µM | SNB-19 > 100 µM | HOP-92 > 100 µM | SNB-75 > 100 µM | SN12C > 100 µM | M14 > 100 µM | SF-539 > 100 µM | Hs-578T > 100 µM | TK-10 > 100 µM | MDA-MB-231 > 100 µM

CC(=O)Oc1ccc2c3c1[C@@H]1O[C@@H]1c1cccc(c1-3)[C@@H]1O[C@H]21
inactive: DU-145 1.91 µM | SK-MEL-28 1.96 µM | 786-0 1.48 µM | HCT-116 1.66 µM | NCI/ADR-RES 1.82 µM | MDA-MB-435 1.14 µM | OVCAR-3 2 µM | OVCAR-4 2.03 µM | T47D 2.14 µM | SK-OV-3 3.44 µM | A549 2.32 µM | SNB-19 3.01 µM | HOP-92 1.81 µM | SNB-75 1.63 µM | SN12C 1.6 µM | M14 1.72 µM | Hs-578T 2.87 µM | TK-10 2.08 µM | MDA-MB-231 2.02 µM

CC1(C)CCOC(=O)C(Cl)CC1Cl (stereo unspecified)
inactive: DU-145 > 100 µM | SK-MEL-28 > 100 µM | 786-0 > 100 µM | HCT-116 > 100 µM | NCI/ADR-RES > 100 µM | MDA-MB-435 > 100 µM | OVCAR-3 > 100 µM | OVCAR-4 > 100 µM | T47D > 100 µM | SK-OV-3 > 100 µM | A549 > 100 µM | SNB-19 > 100 µM | SN12C > 100 µM | M14 > 100 µM | SF-539 > 100 µM | Hs-578T > 100 µM | TK-10 > 100 µM | MDA-MB-231 > 100 µM

Cc1nc2c(Cl)cc(Cl)cc2c(Cl)c1CCCl
inactive: DU-145 > 100 µM | SK-MEL-28 > 100 µM | 786-0 > 100 µM | HCT-116 76 µM | NCI/ADR-RES 72.3 µM | MDA-MB-435 74.6 µM | OVCAR-3 > 100 µM | T47D 52.8 µM | SK-OV-3 > 100 µM | A549 78.7 µM | SNB-19 56.4 µM | SNB-75 42.9 µM | SN12C > 100 µM | M14 > 100 µM | SF-539 > 100 µM | Hs-578T 51.4 µM | TK-10 32.4 µM | MDA-MB-231 69.5 µM

O=C(Nc1ccccc1)OCCN=C1c2ccccc2CCc2ccccc21
inactive: DU-145 24.5 µM | SK-MEL-28 15.4 µM | 786-0 32.6 µM | HCT-116 14.6 µM | NCI/ADR-RES 19.7 µM | MDA-MB-435 22.6 µM | OVCAR-3 13.6 µM | OVCAR-4 21.9 µM | T47D 15.3 µM | SK-OV-3 23.6 µM | A549 17.5 µM | SNB-19 14.8 µM | SNB-75 11.9 µM | SN12C 17.3 µM | M14 21.8 µM | SF-539 18.2 µM | Hs-578T 18.5 µM | TK-10 31.8 µM | MDA-MB-231 15.1 µM

C/C=C\C(CC(=O)NCCC1CN(C(=O)c2ccccc2)c2ccccc21)CC(=O)OC (stereo unspecified)
inactive: DU-145 > 100 µM | SK-MEL-28 > 100 µM | 786-0 > 100 µM | HCT-116 > 100 µM | NCI/ADR-RES > 100 µM | MDA-MB-435 > 100 µM | OVCAR-3 > 100 µM | OVCAR-4 > 100 µM | T47D > 100 µM | SK-OV-3 > 100 µM | A549 > 100 µM | SNB-19 > 100 µM | HOP-92 > 100 µM | SNB-75 > 100 µM | M14 > 100 µM | Hs-578T > 100 µM | TK-10 > 100 µM | MDA-MB-231 > 100 µM

O=C(/N=C1/NCC(CN2CCN(c3ccccc3)CC2)O1)Nc1ccccc1 (stereo unspecified)
inactive: DU-145 > 100 µM | SK-MEL-28 > 100 µM | 786-0 > 100 µM | HCT-116 > 100 µM | NCI/ADR-RES > 100 µM | MDA-MB-435 > 100 µM | OVCAR-4 > 100 µM | T47D > 100 µM | SK-OV-3 > 100 µM | A549 > 100 µM | SNB-19 > 100 µM | HOP-92 > 100 µM | SN12C > 100 µM | M14 > 100 µM | Hs-578T > 100 µM | TK-10 > 100 µM | MDA-MB-231 > 100 µM
